Data published in patent publication US20170305912A1, “PROCESS FOR THE PREPARATION OF 3-PHENYL/HETEROARYL-6-PHENOXY-8-ALKYLAMINO-IMIDAZO[1,2-B]PYRIDAZINE DERIVATIVES” (Bayer Pharma Aktiengesellschaft, priority 2014, published 2017).

Assay: Particle size distribution in a dry dispersion (Sympatec Helos, method AM-PE 69)
Assay type: physicochemical
Settings: cumulative undersize distribution by volume
Protocol: It turned out that the crystalline form of N-cyclopropyl-4-{6-(2,3-difluor-4-methoxyphenoxy)-8-[(3,3,3-trifluorpropyl)amino]imidazo[1,2-b]pyridazin-3-yl}-2-methylbenzamide prepared by the method of the present invention comprising steps (a) to (g), supra, is characterized by an advantageous particle size distribution. […] The particle size distribution was determined in a dry dispersion using the device “Sympatec Helos” and the method “AM-PE 69” (Pharmdoss).
Batch Nos. 1 to 5 were prepared by the method of the present invention comprising steps (a) to (c), supra. In case of Batch Nos. 2 to 5, the preparation method comprised the additional steps (d) to (g) (in case of Batch No. 1 steps (d) to (g) were not applied).
It can be clearly seen that the particles of Batch Nos. 2 to 5 are smaller than the particles of Batch No. 1 and the distribution is more uniform. In case of Batch Nos. 2 to 5, further micronization of the particles might not be necessary in order to increase the solubility or bioavailability of the final drug.

[1] = listed as 2, prepared with steps (d) to (g)
[2] = prepared without steps (d) to (g)
[3] = listed as 4, prepared with steps (d) to (g)
[4] = listed as 5, prepared with steps (d) to (g)

X10 (particle size distribution) [3] [μm]	X50 (particle size distribution) [3] [μm]	X90 (particle size distribution) [3] [μm]	X10 (particle size distribution) [4] [μm]	X50 (particle size distribution) [4] [μm]	X90 (particle size distribution) [4] [μm]	X10 (particle size distribution) (prepared with steps (d) to (g)) [μm]	X50 (particle size distribution) (prepared with steps (d) to (g)) [μm]	X90 (particle size distribution) (prepared with steps (d) to (g)) [μm]	Molecule	X10 (particle size distribution) [1] [μm]	X50 (particle size distribution) [1] [μm]	X90 (particle size distribution) [1] [μm]	X10 (particle size distribution) [2] [μm]	X50 (particle size distribution) [2] [μm]	X90 (particle size distribution) [2] [μm]
									6,8-Bis(2,3-difluoro-4-methoxyphenoxy)-3-iodoimidazo[1,2-b]pyridazine [Example 1]	1.4	5.3	36.1	2.0	18.2	249.0
1.3	4.2	13.2	1.2	4.0	12.4	1.2	4.1	9.9	COc1ccc(Oc2cc(Oc3ccc(OC)c(F)c3F)c3ncc(-c4ccc(C(=O)NC5CC5)c(C)c4)n3n2)c(F)c1F [Example 3, 4-[6,8-bis(2,3-difluoro-4-methoxyphenoxy)imidazo[1,2-b]pyridazin-3-yl]-N-cyclopropyl-2-methylbenzamide]						
